In patent publication US8372951B2, “Cell penetrating peptides for intracellular delivery” (National Tsing Hua University, priority 2010, dated 2013):
“Also recorded” adds a separate entry of the source. Residues, ends and D or L forms follow the SMILES beside them. No end group written: not given here. *: point of attachment. FITC = O=C1OC2(c3ccc(O)cc3Oc3cc(O)ccc32)c2ccc(NC(=S)*)cc21

Tests used:
Format in all cases: cell-based
[1] = tested on: Beas-2B cells; experiment: MTT cell viability assay; conditions: for cytotoxicity / cell death: Beas-2B cells, 24 h, MTT
Procedure: (§1) FIG. 7 illustrates in vitro delivery of peptidomimetic drug. (A). Cell viability assay. Beas-2B cells were incubated with 50 μM (KLAKLAK)2-ECP(32-41), ECP(32-41), or (KLAKLAK)2, at 37° C. for 24 h. Effects of (KLAKLAK)2-ECP(32-41) on the cell viability of Beas-2B, A549 and CHO-K1 cells (B), as well as Caco-2 and AGS cells (C). Cell viability in each group was determined by MTT assay and each experiment was performed in triplicate.
(§2) The cytotoxic effect of peptides on the cell growth were determined by a colorimetric assay using 3-(4,5-dimethylthiazol-2-yl)-2,5-diphenyltetrazolium bromide (MTT) (US Biological, Marblehead, Mass.). Cells were plated in a 96-well plate (1.0×10^4 cells/well) and incubated at 37° C. overnight. Each sample was incubated with the indicated concentration (1-100 μM) of peptide. Twenty-four hours after treatment with the indicated peptide, MTT was added, and cell growth was monitored at A570 to measure the mitochondrial-dependent formation of a colored product.

[2] = tested on: AGS; experiment: MTT cell viability assay; conditions: 24 h
Procedure: as §1, §2

[3] = tested on: Caco-2; experiment: MTT cell viability assay; conditions: Caco-2, 24 h
Procedure: as §1, §2

[4] = tested on: A549; experiment: MTT cell viability assay; conditions: A549, 24 h
Procedure: as §1, §2

[5] = tested on: CHO-K1; experiment: MTT cell viability assay; conditions: CHO-K1, 24 h
Procedure: as §1, §2

[6] = tested on: Beas-2B cells; experiment: Flow cytometry of cellular uptake of fluorescence-labeled peptides/proteins; conditions: 37° C., 30 min; for cellular uptake of peptide cargo: 5 μM
Procedure: FIG. 2 illustrates cellular uptake of ECP(32-41). Beas-2B cells were incubated with 20 μM FITC (control) or FITC-ECP(32-41) at 37° C. for 30 min. After treatment, the cells were washed with 500 μl phosphate buffered saline (PBS) and treated with trypsin at 37° C. for 10 min to remove adherent extracellular peptides. The cells were resuspended in 500 μl PBS and analyzed by flow cytometry. The cellular uptake activity was expressed as mean fluorescence intensity (MFI) using FACScalibur (BD Biosciences, Franklin Lakes, N.J.) flow cytometer (FACS). The data represented the means of triplicate incubations.
FIG. 5 illustrates in vitro delivery of peptide. Beas-2B cells were incubated with 5 μM FITC (control), FITC-Dp2 or FITC-Dp2-ECP(32-41) at 37° C. for 1 h. After treatment, cells were washed with 500 μl PBS and treated with trypsin at 37° C. for 10 min to remove adherent extracellular peptides. The cells were resuspended in 500 μl PBS and analyzed by flow cytometry. The cellular uptake activity was expressed as mean fluorescence intensity (MFI) using FACScalibur (BD Biosciences, Franklin Lakes, N.J.) flow cytometer (FACS). The data represented the means of triplicate incubations.
FIG. 6 illustrates in vitro delivery of protein. […] The cells were resuspended in 500 μl PBS and analyzed by flow cytometry. The cellular uptake activity was expressed as mean fluorescence intensity (MFI) using FACScalibur (BD Biosciences, Franklin Lakes, N.J.) flow cytometer (FACS). […]
Cells (2.0×10^5 cells/well) were plated into a 6-well microplate and cultured for 24 h in RPMI 1640 medium containing 10% heat-inactivated bovine serum (Beas-2B). After complete adhesion, the cells were incubated at 37° C. with fluorescence-labeled peptides dissolved in fresh serum-containing medium prior to washing with PBS. […] The washing cycle was repeated again and the cells were suspended in PBS and subjected to fluorescence analysis on a FACScalibur (BD Biosciences, Franklin Lakes, N.J.) flow cytometer (FACS) using 488-nm laser excitation and a 515-545-nm emission filter. […]

[7] = tested on: Beas-2B cells; experiment: Confocal microscopy of cellular uptake and intracellular distribution; conditions: for entry into Beas-2B cells (minimal length requirement): 5 μM FITC-labeled peptide, 30 min
Procedure: FIG. 3 illustrates intracellular distribution of cell-penetrating ECP(32-41). Beas-2B cells were incubated with 5 μM FITC-ECP(32-41) at 37° C. for 5 or 60 min. After wash with 1 ml PBS buffer twice, the cellular uptake was analyzed by confocal laser scanning microscopy. Magnification ford: 63×. Scale bar: 50
FIG. 4 illustrates minimal length requirement of cell penetration peptide. Beas-2B cells were incubated with 5 μM FITC-ECP(32-41), FITC-ECP(32-41)D1, and FITC-ECP(32-41)D2 separately at 37° C. for 30 min. After wash with 1 ml PBS buffer twice, the cellular uptake was analyzed by confocal laser scanning microscopy. Magnification fold: 40×. Scale bar: 50
Cells (1.0×10^4 cells/well) were plated on 18-mm glass-bottomed dishes (Marienfeld, Germany) and cultured in medium containing 10% heat-inactivated fetal bovine serum for 24 h. After complete adhesion, the cell culture medium was removed, and then incubated at 37° C. in fresh medium containing the fluorescence-labeled peptides. The cells were washed with PBS, then fixed by 2% (w/v) paraformaldehyde (PFA) in PBS for 15 min, and 50 mM ammonium chloride in PBS was added to quench with fluoresce from PFA. Distribution of the fluorescence-labeled peptides in the cells was analyzed using a confocal scanning laser microscope (Zeiss).

CC(C)C[C@H](NC(=O)[C@H](CCCCN)NC(=O)[C@H](C)NC(=O)[C@H](CC(C)C)NC(=O)[C@H](CCCCN)NC(=S)Nc1ccc2c(c1)C(=O)OC21c2ccc(O)cc2Oc2cc(O)ccc21)C(=O)N[C@@H](C)C(=O)N[C@@H](CCCCN)C(=O)N[C@@H](CCCCN)C(=O)N[C@@H](CC(C)C)C(=O)N[C@@H](C)C(=O)N[C@@H](CCCCN)C(=O)N[C@@H](CC(C)C)C(=O)N[C@@H](C)C(=O)N[C@@H](CCCCN)C(=O)N[C@@H](CC(N)=O)C(=O)N[C@@H](Cc1ccc(O)cc1)C(=O)N[C@@H](CCCNC(=N)N)C(=O)N[C@@H](Cc1c[nH]c2ccccc12)C(=O)N[C@@H](CCCNC(=N)N)C(=O)N[C@@H](CS)C(=O)N[C@@H](CCCCN)C(=O)N[C@@H](CC(N)=O)C(=O)N[C@@H](CCC(N)=O)C(=O)N[C@@H](CC(N)=O)C(=O)O [(KLAKLAK)2-ECP(32-41)] ({FITC}-KLAKLAKKLAKLAKNYRWRCKNQN-OH; N-terminus and C-terminus assumed)
cytotoxicity / cell death ([1]; listed as FITC-(KLAKLAK)2-ECP(32-41)): induce markedly cell death; also recorded: strong cytotoxicity
cytotoxicity (cell viability) [2]: strong cytotoxicity
cytotoxicity (cell viability) [3]: strong cytotoxicity
cytotoxicity (cell viability) [4]: strong cytotoxicity
cytotoxicity (cell viability) [5]: strong cytotoxicity

(KLAKLAK)2: previously reported proapoptotic domain, peptidomimetic, SEQ ID NO: 6 (KLAKLAKKLAKLAK; (KLAKLAK)2) [reference compound]
cell-penetrating activity ([1]; stated with the Beas-2B viability results (FIG. 7A)): lacking

Dp2-ECP(32-41): recombinant Dp2 peptide fused with ECP(32-41), SEQ ID NO: 5 (IIHRGKPFQLEAVNYRWRCKNQN; Dp2-ECP(32-41))
cellular uptake of peptide cargo [6]: able to enter the cells

ECP(32-41) D1: C-terminally truncated ECP(32-41) peptide, SEQ ID NO: 2 (NYRWRCKNQ; ECP(32-41)D1)
entry into Beas-2B cells (minimal length requirement) ([7]; 37° C.): entered Beas-2B cells

ECP(32-41): 10 amino acid cell penetrating peptide from eosinophil cationic protein residues 32-41, SEQ ID NO: 1 (NYRWRCKNQN; ECP(32-41))
cytotoxicity / cell death [1]: lacking
entry into Beas-2B cells (minimal length requirement) ([7]; 37° C.): entered Beas-2B cells
intracellular localization ([7]; 5 μM, 37° C.): both cytoplasm and nucleus

ECP(32-41)D2: C-terminally truncated ECP(32-41) peptide, SEQ ID NO: 3 (NYRWRCKN; ECP(32-41)D2)
entry into Beas-2B cells (minimal length requirement) ([7]; 37° C.): could not

FITC-Dp2: Dp2 peptide (SEQ ID NO: 4), the group 2 allergen of Dermatophagoides pteronyssinus, FITC-labeled (IIHRGKPFQLEAV; not fully specified (N-terminus); also: FITC label) [reference compound]
cellular uptake of peptide cargo [6]: only Dp2-ECP(32-41) was able to enter the cells

FITC-ECP(32-41): fluorochrome-tagged peptide, FITC-labeled ECP(32-41) (SEQ ID NO: 1) ({FITC}-NYRWRCKNQN)
cellular uptake (fluorescent signal shift) ([6]; 20 μM, trypsinized): significant uptake
fluorescence signal inside the cells ([7]; 5 μM, 5 min): a clear fluorescence signal inside the cells
fluorescence signal inside the cells ([7]; 5 μM, up to 60 min): Stronger signal
